Results: ChEMBL document CHEMBL6127140, “Bicyclic Ureas as JAK2 Inhibitors for Treating Hematological Cancer” (ACS Med Chem Lett, 2024)

Assay: Binding affinity to C-terminal his-Avi-tagged human JAK2 JH-2 domain (536 to 812 residues) W659A/W777A/F794H mutant expressed in baculovirus expression system incubated for 1 hr in presence of JAK2 JH2 tracer and ATP by Lanthascreen assay

Structure (SMILES)	IC50 [µM]
COC(=O)N[C@@H]1CC[C@@H](n2c(=O)n(C)c3cnc(Nc4cccc(-c5ccc(OC)nc5)n4)cc32)C1	≤ 0.01
COC(=O)N[C@@H]1CC[C@@H](n2c(=O)n(C)c3cnc(Nc4cccc(-c5ccc6c(c5)OCCO6)n4)cc32)C1	≤ 0.01
COC(=O)N[C@@H]1CC[C@@H](n2c(=O)n(C)c3cnc(Nc4cc(C)nc(N5CCC(F)(F)C5)n4)cc32)C1	≤ 0.01
COC(=O)N[C@@H]1CC[C@@H](n2c(=O)n(C)c3cnc(Nc4ccc(F)c(-c5ccc(C6CC6)cc5)n4)cc32)C1	≤ 0.01
COC(=O)N[C@@H]1CC[C@@H](n2c(=O)n(C)c3cnc(Nc4cccc(-c5ccc6[nH]nc(C)c6c5)n4)cc32)C1	≤ 0.01
COC(=O)N[C@@H]1CC[C@@H](n2c(=O)n(C)c3cnc(Nc4ccnc(N5CCCCC5)n4)cc32)C1	≤ 0.01
